pIC50: −log10 of the molar value.
Legend:
[1] = tested on: A549; experiment: In vitro cytotoxicity against human A549 (lung cancer) cell line.; type: functional, cell-based
[2] = tested on: Col2; experiment: In vitro cytotoxicity against human Col2 (colon cancer) cell line.; type: functional, cell-based
[3] = target: T1, DNA topoisomerase II (Homo sapiens, UniProt P11388+Q02880); experiment: In vitro inhibition of human DNA topoisomerase II activity.; type: protein assay; conditions: concentration not given here
[4] = target: T2, DNA topoisomerase 1 (Homo sapiens) (UniProt P11387); experiment: In vitro inhibition of human DNA topoisomerase I activity.; design: concentration or dose not given beside the values; conditions: concentration not given here
T2 sequence (whole entry): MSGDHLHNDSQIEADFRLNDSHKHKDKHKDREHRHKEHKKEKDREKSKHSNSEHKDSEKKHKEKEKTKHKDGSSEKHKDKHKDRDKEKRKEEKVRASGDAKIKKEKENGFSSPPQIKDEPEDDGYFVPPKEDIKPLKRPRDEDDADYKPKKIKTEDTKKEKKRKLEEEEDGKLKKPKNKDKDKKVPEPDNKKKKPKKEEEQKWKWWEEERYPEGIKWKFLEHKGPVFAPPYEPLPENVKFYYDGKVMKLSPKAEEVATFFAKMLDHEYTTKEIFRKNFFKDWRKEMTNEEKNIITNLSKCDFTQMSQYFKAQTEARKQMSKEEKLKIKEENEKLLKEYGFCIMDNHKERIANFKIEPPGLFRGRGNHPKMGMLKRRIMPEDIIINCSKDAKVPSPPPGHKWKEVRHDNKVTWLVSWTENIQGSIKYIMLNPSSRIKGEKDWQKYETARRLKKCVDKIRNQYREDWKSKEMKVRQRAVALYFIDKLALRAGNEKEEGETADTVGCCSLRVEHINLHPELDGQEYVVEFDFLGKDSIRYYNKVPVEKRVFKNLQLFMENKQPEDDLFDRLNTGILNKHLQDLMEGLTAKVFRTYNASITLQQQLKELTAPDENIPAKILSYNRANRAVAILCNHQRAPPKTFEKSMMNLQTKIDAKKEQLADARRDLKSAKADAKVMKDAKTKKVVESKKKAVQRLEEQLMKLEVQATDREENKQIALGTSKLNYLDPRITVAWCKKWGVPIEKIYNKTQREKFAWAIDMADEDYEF

[5] = tested on: SNU-638; experiment: In vitro cytotoxicity against human SNU-638 (stomach cancer) cell line.; type: functional, cell-based
[6] = target: T1, DNA topoisomerase II; experiment: Inhibitory activity against topo II-mediated decatenation of DNA; type: protein assay
[7] = target: T1, DNA topoisomerase II; experiment: Inhibitory activity against DNA topoisomerase II; type: protein assay

SMILES | inhibition [3] [%] | inhibition [4] [%] | IC50 [6] [nM] | IC50 [7] [nM] | pIC50 [1] | pIC50 [2] | pIC50 [5]
CCc1ccccc1/N=C1/C(=O)c2cncnc2C(O)=C1Cl | 82 | 20 |  |  | 5.33 | 5.36 | 6.15
COc1cccc2c1C(=O)c1c(O)c3c(c(O)c1C2=O)C[C@@](O)(C(=O)CO)C[C@@H]3O[C@H]1C[C@H](N)[C@H](O)[C@H](C)O1 [DOXORUBICIN] |  |  |  |  | 6.52 | 6.28 | 6.16
COc1ccc(/N=C2/C(=O)c3cncnc3C(O)=C2Cl)c(OC)c1 | 20 | 35 |  |  | 5.69 | 5.97 | 6.21
Cc1ccc(NC2=C(Cl)C(=O)c3ncncc3C2=O)cc1 | 1 | 12 |  |  | 5.24 | 6.06 | 6.14
CCc1ccc(NC2=C(Cl)C(=O)c3ncncc3C2=O)cc1 | 4 | 88 |  |  | 5.46 | 6.15 | 6.19
CCOc1ccccc1/N=C1/C(=O)c2cncnc2C(O)=C1Cl | 1 | 9 |  |  | 5.48 | 6.14 | 6.16
Cc1ccccc1/N=C1/C(=O)c2cncnc2C(O)=C1Cl | 6 | 29 |  |  | 5.44 | 5.42 | 6.05
Cc1c2ccncc2c(C)c2c1[nH]c1ccccc12 [ELLIPTECINE] |  |  |  |  | 5.91 | 5.91 | 5.70
O=C1C(Nc2ccc3c(c2)OCO3)=C(Cl)C(=O)c2ncncc21 | 2 | 27 |  |  | 5.78 | 6.06 | 6.26
Cc1ccc(NC2=C(Cl)C(=O)c3ncncc3C2=O)cc1C | 20 | 100 |  |  | 5.35 | 5.43 | 6.00
COc1cc([C@@H]2c3cc4c(cc3[C@@H](O[C@@H]3O[C@@H]5CO[C@@H](C)O[C@H]5[C@H](O)[C@H]3O)[C@H]3COC(=O)[C@H]23)OCO4)cc(OC)c1O | 48 |  |  |  |  |  | 
Cc1ccc(/N=C2/C(=O)c3cncnc3C(O)=C2Cl)c(Br)c1 | 100 | 100 |  | 40500 | 5.39 | 5.52 | 6.05

More lines, main results first:

inhibition [3] [%] | inhibition [4] [%] | IC50 [6] [nM] | IC50 [7] [nM] | SMILES | pIC50 [1] | pIC50 [2] | pIC50 [5]
99 | 89 | 17300 |  | O=C1C(Nc2ccccc2Br)=C(Cl)C(=O)c2ncncc21 | 5.35 | 5.47 | 6.00
94 | 58 | 15100 |  | O=C1C(Nc2ccc(Br)cc2)=C(Cl)C(=O)c2ncncc21 | 5.37 | 5.52 | 6.16
2 | 12 |  |  | O=C1C(Nc2cccc(Cl)c2)=C(Cl)C(=O)c2ncncc21 | 5.37 | 5.45 | 6.09
2 | 96 |  |  | Cc1cccc(NC2=C(Cl)C(=O)c3ncncc3C2=O)c1 | 5.29 | 5.25 | 6.01
41 | 27 |  |  | O=C1C(Nc2ccccc2)=C(Cl)C(=O)c2ncncc21 | 5.45 | 5.92 | 6.11
2 | 9 |  |  | O=C1C(Nc2cccc(Br)c2)=C(Cl)C(=O)c2ncncc21 | 5.43 | 5.29 | 5.93

— ChEMBL document CHEMBL1147454, “6-Arylamino-7-chloro-quinazoline-5,8-diones as novel cytotoxic and DNA topoisomerase inhibitory agents” (Bioorg Med Chem Lett, 2004)
